Assay results from US9394570B2, “Marker for colon cancer and method for detecting colon cancer” (The Chinese University of Hong Kong, priority 2010, dated 2016).
“Also recorded” adds a separate entry of the source.

Tested on: TBX5 expression in methylated colon cancer cell lines
Assay: Demethylation with 5-Aza, TBX5 mRNA expression by RT-PCR
Assay type: cell-based, human
Details: 2 μM 5-Aza for 5 days; 4 methylated cell lines with silenced or downregulated TBX5
Experimental: Total RNA was extracted from cell pellets and tissues using TRIzol Reagent according to the manufacturer's instruction (Molecular Research Center, Inc., Cincinnati, Ohio). cDNA was synthesized from 2 μg total RNA using Transcriptor Reverse Transcriptase (Roche Applied Sciences, Indianapolis, Ind.). For semi-quantitative RT-PCR, a 151 bp fragment of the TBX5 gene was amplified for 36 cycles using AmpliTaq Gold DNA polymerase (Applied Biosystems, Foster City, Calif.) as previously reported (Yu et al, Gastro), with β-actin as internal control. The primer sequences of TBX5 are: forward 5′-[…]-3′ (SEQ ID NO:2) and reverse 5′-[…]-3′ (SEQ ID NO:3). Real-time PCR was performed using SYBR Green master mixture on HT7900 system according to the manufactures' instructions (Applied Biosystems).
Cells were seeded at a density of 1×10^6 cells/mL. After 24 hours, cells were treated with 2 μM of the DNA demethylating agent 5-Aza (Sigma-Aldrich, St Louis, Mo.) for 5 days. 5-Aza was replenished every day. Controlled cells were treated with an equivalent concentration of vehicle (DMSO). Cells were then harvested for DNA and RNA extractions.

Nc1ncn([C@H]2C[C@H](O)[C@@H](CO)O2)c(=O)n1 [5-Aza, 5-Aza-2′-deoxycytidine]
TBX5 mRNA expression after demethylation treatment: restoration of TBX5 expression in all cell lines examined; also recorded: restored
